Laboratory results published in PubChem BioAssay (NCI).
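Values below derive from 48-hour exposures of cells grown in 96-well plates, with endpoints linearly interpolated between the two concentrations bracketing the appropriate inhibition level. GI50 is the concentration that inhibits growth by half. TGI is the concentration that stops growth completely.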

Columns and labels:
Assay in all cases: NCI anticancer screen, dose series, 48 h
BT-549 breast = tested on: BT-549 breast
A549 NSCLC = tested on: A549 NSCLC
TK-10 renal = tested on: TK-10 renal
COLO 205 colon = tested on: COLO 205 colon
NCI-H23 lung = tested on: NCI-H23 lung
ACHN renal = tested on: ACHN renal
NCI-H226 lung = tested on: NCI-H226 lung
K-562 leukemia = tested on: K-562 leukemia
SNB-19 CNS = tested on: SNB-19 CNS
SF-295 CNS = tested on: SF-295 CNS
CCRF-CEM leukemia = tested on: CCRF-CEM leukemia
RXF 393 renal = tested on: RXF 393 renal
OVCAR-8 ovarian = tested on: OVCAR-8 ovarian
M14 melanoma = tested on: M14 melanoma
NCI-H460 lung = tested on: NCI-H460 lung
SF-539 CNS = tested on: SF-539 CNS
SNB-75 CNS = tested on: SNB-75 CNS
DU-145 prostate = tested on: DU-145 prostate
CAKI-1 renal = tested on: CAKI-1 renal
NCI-H522 lung = tested on: NCI-H522 lung
HOP-62 NSCLC = tested on: HOP-62 NSCLC
UACC-257 melanoma = tested on: UACC-257 melanoma
HCT-15 colon = tested on: HCT-15 colon
PC-3 prostate = tested on: PC-3 prostate
U251 CNS = tested on: U251 CNS
HCT-116 colon = tested on: HCT-116 colon
HOP-92 NSCLC = tested on: HOP-92 NSCLC
MDA-MB-231 breast = tested on: MDA-MB-231 breast
SW-620 colon = tested on: SW-620 colon
SK-MEL-28 melanoma = tested on: SK-MEL-28 melanoma
HCC-2998 colon = tested on: HCC-2998 colon
786-0 renal = tested on: 786-0 renal
T-47D breast = tested on: T-47D breast
EKVX NSCLC = tested on: EKVX NSCLC
MCF7 breast = tested on: MCF7 breast
HS 578T breast = tested on: HS 578T breast
NCI/ADR-RES ovarian = tested on: NCI/ADR-RES ovarian
SK-MEL-5 melanoma = tested on: SK-MEL-5 melanoma
LOX IMVI melanoma = tested on: LOX IMVI melanoma
KM12 colon = tested on: KM12 colon
SN12C renal = tested on: SN12C renal
MDA-MB-435 = tested on: MDA-MB-435
OVCAR-3 ovarian = tested on: OVCAR-3 ovarian
OVCAR-5 ovarian = tested on: OVCAR-5 ovarian
SK-OV-3 ovarian = tested on: SK-OV-3 ovarian
SF-268 CNS = tested on: SF-268 CNS
UACC-62 melanoma = tested on: UACC-62 melanoma
RPMI-8226 leukemia = tested on: RPMI-8226 leukemia
UO-31 renal = tested on: UO-31 renal
HT29 colon = tested on: HT29 colon
MOLT-4 leukemia = tested on: MOLT-4 leukemia
OVCAR-4 ovarian = tested on: OVCAR-4 ovarian
IGROV1 ovarian = tested on: IGROV1 ovarian
SK-MEL-2 melanoma = tested on: SK-MEL-2 melanoma

CCOC1Oc2ccc(C)cc2C(=O)/C1=C\Nc1ccc(C(N)=O)cc1 (stereo not drawn)
GI50 (BT-549 breast): 15.5 µM
TGI (BT-549 breast): 62.9 µM
GI50 (A549 NSCLC): 33.3 µM
TGI (A549 NSCLC): > 100 µM
GI50 (TK-10 renal): 15.7 µM
TGI (TK-10 renal): 36 µM
GI50 (COLO 205 colon): 8.52 µM
TGI (COLO 205 colon): > 100 µM
GI50 (NCI-H23 lung): 17.4 µM
TGI (NCI-H23 lung): 38.2 µM
GI50 (ACHN renal): 14.9 µM
TGI (ACHN renal): 40.6 µM
GI50 (NCI-H226 lung): 24.3 µM
TGI (NCI-H226 lung): 50.7 µM
GI50 (K-562 leukemia): 22.6 µM
TGI (K-562 leukemia): 66.6 µM
GI50 (SNB-19 CNS): 18.4 µM
TGI (SNB-19 CNS): > 100 µM
GI50 (SF-295 CNS): 18.1 µM
TGI (SF-295 CNS): 45.9 µM
GI50 (CCRF-CEM leukemia): 20.3 µM
TGI (CCRF-CEM leukemia): 65.3 µM
GI50 (RXF 393 renal): 22.9 µM
TGI (RXF 393 renal): 49 µM
GI50 (OVCAR-8 ovarian): 17.7 µM
TGI (OVCAR-8 ovarian): 40.3 µM
GI50 (M14 melanoma): 17.2 µM
TGI (M14 melanoma): 33.4 µM
GI50 (NCI-H460 lung): 33.3 µM
TGI (NCI-H460 lung): > 100 µM
GI50 (SF-539 CNS): 18.4 µM
TGI (SF-539 CNS): 53.2 µM
GI50 (SNB-75 CNS): 44.5 µM
TGI (SNB-75 CNS): > 100 µM
GI50 (DU-145 prostate): 21.7 µM
TGI (DU-145 prostate): 60.4 µM
GI50 (CAKI-1 renal): 20.6 µM
TGI (CAKI-1 renal): 44.8 µM
GI50 (NCI-H522 lung): 20.8 µM
TGI (NCI-H522 lung): 47.3 µM
GI50 (HOP-62 NSCLC): 17.6 µM
TGI (HOP-62 NSCLC): 33.7 µM
GI50 (UACC-257 melanoma): 25.5 µM
TGI (UACC-257 melanoma): 52.3 µM
GI50 (HCT-15 colon): 11.4 µM
TGI (HCT-15 colon): 30.6 µM
GI50 (PC-3 prostate): 32.9 µM
TGI (PC-3 prostate): > 100 µM
GI50 (U251 CNS): 13.2 µM
TGI (U251 CNS): 34.2 µM
GI50 (HCT-116 colon): 13.4 µM
TGI (HCT-116 colon): 26.2 µM
GI50 (HOP-92 NSCLC): 79.9 µM
TGI (HOP-92 NSCLC): > 100 µM
GI50 (MDA-MB-231 breast): 16.7 µM
TGI (MDA-MB-231 breast): 36 µM
GI50 (SW-620 colon): 15.2 µM
TGI (SW-620 colon): 51.2 µM
GI50 (SK-MEL-28 melanoma): 51.7 µM
TGI (SK-MEL-28 melanoma): > 100 µM
GI50 (HCC-2998 colon): 20.3 µM
TGI (HCC-2998 colon): 39 µM
GI50 (786-0 renal): 16.3 µM
TGI (786-0 renal): 30.4 µM
GI50 (T-47D breast): 6.13 µM
TGI (T-47D breast): > 100 µM
GI50 (EKVX NSCLC): 25.8 µM
TGI (EKVX NSCLC): 69 µM
GI50 (MCF7 breast): 25 µM
TGI (MCF7 breast): > 100 µM
GI50 (HS 578T breast): 22.8 µM
TGI (HS 578T breast): 64.4 µM
GI50 (NCI/ADR-RES ovarian): 17.7 µM
TGI (NCI/ADR-RES ovarian): 44.7 µM
GI50 (SK-MEL-5 melanoma): 13.8 µM
TGI (SK-MEL-5 melanoma): 30.2 µM
GI50 (LOX IMVI melanoma): 13.9 µM
TGI (LOX IMVI melanoma): 34.4 µM
GI50 (KM12 colon): 16.6 µM
TGI (KM12 colon): 34.3 µM
GI50 (SN12C renal): 17.6 µM
TGI (SN12C renal): 38.8 µM
GI50 (MDA-MB-435): 20.1 µM
TGI (MDA-MB-435): 50.8 µM
GI50 (OVCAR-3 ovarian): 18.8 µM
TGI (OVCAR-3 ovarian): 46.8 µM
GI50 (OVCAR-5 ovarian): 22 µM
TGI (OVCAR-5 ovarian): 47.1 µM
GI50 (SK-OV-3 ovarian): 21.1 µM
TGI (SK-OV-3 ovarian): > 100 µM
GI50 (SF-268 CNS): 44 µM
TGI (SF-268 CNS): > 100 µM
GI50 (UACC-62 melanoma): 13.6 µM
TGI (UACC-62 melanoma): 30.8 µM
GI50 (RPMI-8226 leukemia): 18.6 µM
TGI (RPMI-8226 leukemia): 90.5 µM
GI50 (UO-31 renal): 21.2 µM
TGI (UO-31 renal): 59.7 µM
GI50 (HT29 colon): 37.5 µM
TGI (HT29 colon): > 100 µM
GI50 (MOLT-4 leukemia): 46.2 µM
TGI (MOLT-4 leukemia): > 100 µM
GI50 (OVCAR-4 ovarian): 99.8 µM
TGI (OVCAR-4 ovarian): > 100 µM
GI50 (IGROV1 ovarian): 18.9 µM
TGI (IGROV1 ovarian): 72.5 µM
GI50 (SK-MEL-2 melanoma): 34.4 µM
TGI (SK-MEL-2 melanoma): > 100 µM
